One experiment deals with U251-MG cells. As to the kind of experiment: Half-maximal cell-inhibitory concentration on U251-MG cells (CCK-8). It counts as cell-based. To be noted: Homo sapiens, U-251, U251-MG cells (DHX33-overexpressing cancer cell strain), 48 hours, read-out: IC50 (half-maximal inhibitory concentrations of compounds on U251-MG cells). The essentials: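 […]-overexpressing glioma cells seeded at 1×10^4 cells/well, exposed to compound from 5 nM to 20 μM for 48 hours at 37° C, 5% CO2. Viability read by CCK-8 after 2 hours (OD 450 nm); IC50 from inhibition curves, three repeats.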

The next experiment has as its target T1, DHX33 protein (Mus musculus, UniProt Q80VY9).
T1 construct: purified full-length DHX33 protein; made in house; host or cells: E. coli BL-21pLysS (DE3)
T1 sequence (Q80VY9 1-698): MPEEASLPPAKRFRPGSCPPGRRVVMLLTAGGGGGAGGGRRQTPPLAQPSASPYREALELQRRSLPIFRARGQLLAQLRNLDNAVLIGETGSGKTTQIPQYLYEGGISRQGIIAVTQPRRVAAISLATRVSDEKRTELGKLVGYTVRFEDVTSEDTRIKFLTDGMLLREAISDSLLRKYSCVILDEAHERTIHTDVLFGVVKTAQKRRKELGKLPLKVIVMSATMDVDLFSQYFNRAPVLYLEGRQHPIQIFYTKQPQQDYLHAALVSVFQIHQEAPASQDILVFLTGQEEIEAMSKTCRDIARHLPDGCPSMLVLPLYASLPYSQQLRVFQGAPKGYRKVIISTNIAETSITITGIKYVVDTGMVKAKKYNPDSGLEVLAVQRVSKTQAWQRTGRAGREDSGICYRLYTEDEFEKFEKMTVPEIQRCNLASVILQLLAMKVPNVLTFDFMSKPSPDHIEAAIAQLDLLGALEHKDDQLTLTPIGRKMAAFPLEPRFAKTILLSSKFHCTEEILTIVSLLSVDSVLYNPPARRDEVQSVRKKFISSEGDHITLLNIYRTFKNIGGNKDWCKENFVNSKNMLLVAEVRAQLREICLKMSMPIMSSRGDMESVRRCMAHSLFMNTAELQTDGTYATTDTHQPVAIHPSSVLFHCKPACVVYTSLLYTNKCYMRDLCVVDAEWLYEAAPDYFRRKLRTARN
Put plainly: Inhibition of the helicase activity of DHX33 protein in vitro. It counts as biochemical. To be noted: recombinant DHX33 protein, compound 1-1000 nM, 37° C., 60 minutes; read-out: IC50 (inhibitory effects of the compounds on the helicase activity of DHX33 protein). Here is the method:
Biochemistry. 2019:58 (4):250-8. RNA helicase gene (mouse DHX33 gene) was cloned into a pET32M-3C vector (between BamH I/Not I restriction sites). Afterward, the plasmid was transformed into BL-21pLysS (DE3) E. coli. 0.5 mM isopropyl 1-thio-βp-D-galactopyranoside (IPTG) was added, and the expression of the recombinant protein was induced at 16° C. for 16 hours. Cells were allowed to precipitate and were resuspended in a cell lysis buffer [50 mM Tris-HCl (pH7.2), 150 mM NaCl, 1% Triton X-100, and 50 mM imidazole supplemented with a protease inhibitor]. Thereafter, cells were subjected to ultrasonic treatment and centrifuged at a rotation speed of 13000 rpm for 25 minutes. The supernatant was incubated with the nickel-nitrilotriacetic acid beads equilibrated in Tris buffer, followed by sufficient washing. Thereafter, the purified protein was eluted with a solution of 300 mM imidazole in Tris buffer, and was then subjected to dialysis against an imidazole-free Tris buffer at 4° C. overnight.
The components involved in the reaction for testing the helicase activity were added to a 96-well opaque white plate. The method was outlined as follows. The 96-well plate was coated with neutravidin at a final concentration of 10 μg/mL (100 μl/well) overnight at 4° C. Afterwards, the neutravidin-coated plate was blocked with 100 μL of 0.1% (w/v) BSA (dissolved in normal PBS) at 22° C. for 2 hours. After washing, a DNA duplex (2.5 ng) that was resulted from the annealing of two single-stranded DNA oligonucleotides (the sequence of one single strand was biotin-labeled 5′-[…]-3′; and the sequence of the other single strand was DIG-labeled 5′-[…]-3′) [the annealing reaction was carried out in PBS (pH 7.0) containing 1M NaCl] was added, and the resulting mixture was incubated at 22° C. for 4 hours. After the addition of 90 μL of the reaction mixture, the helicase reaction was initiated [0.25 pig of purified full-length DHX33 protein, dissolved in 25 mM 4-MOPS (pH 7.0), 5 mM ATP 2 mM DTT, 3 mM MnCl2 and 100 μg/mL BSA]. The reaction was conducted at 37° C. for 60 minutes. After being washed, each well was incubated with a blocking solution [10% (w/v) BSA in 0.1 M maleic acid and 0.15 M NaCl (pH 7.5)] for 30 minutes, and was then incubated with 20 μL of antibody solution (anti-DIG-AP, Roche, in blocking buffer) for 30 minutes. After being washed with 100 μL of detection buffer [0.1 M Tris-HCl and 0.1 M NaCl (pH 9.5)], each well was added with 1 μL of chemiluminescent substrate (CSPD-0.25 mM), and the plate was incubated at 17° C. for 5 minutes. Afterwards, the plate was patted dry and incubated at 37° C. for 30 minutes. The remaining DIG-AP marker control in each well was counted for 10 minutes by a luminescence multi-well plate reader (Enspire, PerkinElmer). Higher reading indicated weaker helicase activity.
Positive control and negative controls were set for this acticity assay. Among them, one negative control group, which differed from the experimental group only in that the former was not added with ATP (other conditions were the same as the experimental group), was used for the comparison with the experimental group; another negative control group, which differed from the experimental group only in that the former was not added with DHX33 protein (other conditions were the same as the experimental group), was used for the comparison with the experimental group. The positive control group was set for the comparison with the wild-type DHX33 protein (standard substance).
Biochemistry. 2019:58 (4):250-8.
Compounds having a series of concentration (the concentrations were set at 1 nM, 5 nM, 10 nM, 20 nM, 50 nM, 100 nM, 250 nM, 500 nM, and 1000 nM) were used to conduct the helicase activity assay of […] protein in vitro. The half-maximal inhibitory concentrations of the compounds of the present disclosure on the helicase activity of […] protein were as shown in Table 1.

Take `CCOC(=O)c1nc(C)sc1-n1c(C)cc(/C=C(\C#N)c2nc3cc(OC)ncc3[nH]2)c1C` [AB24314, ethyl (E)-5-(3-(2-cyano-2-(6-methoxy-3H-imidazo[4,5-c]pyridin-2-yl)vinyl)-2,5-dimethyl-1H-pyrrol-1-yl)-2-methylthiazole-4-carboxylate]: the figures for the IC50 in the experiment on U251-MG cells and at DHX33 protein were 100 to 1000 nM and 20 to 100 nM, respectively.

Take `COc1ccc2nc(/C(C#N)=C/c3cc(C)n(-c4sc(C)cc4C#N)c3C)[nH]c2c1` [AB24321]: the figures for the IC50 with U251-MG cells and at DHX33 protein were 100 to 1000 nM and below 20 nM, respectively.

Turning to `COC(=O)c1c(-n2c(C)cc(/C=C(\C#N)c3nc4ccc(OC)cc4[nH]3)c2C)sc(C)c1C` [AB24322, methyl (E)-2-(3-(2-cyano-2-(6-methoxy-1H-benzo[d]imidazol-2-yl)vinyl)-2,5-dimethyl-1H-pyrrol-1-yl)-4,5-dimethylthiophene-3-carboxylate], the IC50 in the experiment on U251-MG cells was 1000 to 5000 nM; at DHX33 protein, 100 to 400 nM.

Regarding `COC(=O)c1cc(C)c(-n2c(C)cc(/C=C(\C#N)c3nc4cc(OC)ncc4[nH]3)c2C)s1` [AB24335], the IC50 in the experiment on U251-MG cells was 1000 to 5000 nM; at DHX33 protein, 20 to 100 nM.

Take `COc1cc2nc(/C(C#N)=C/c3cc(C)n(-c4sc(-c5ccccn5)cc4C#N)c3C)[nH]c2cn1` [AB24336, (E)-2-(3-(2-cyano-2-(6-methoxy-3H-imidazo[4,5-c]pyridin-2-yl)vinyl)-2,5-dimethyl-1H-pyrrol-1-yl)-5-(pyridin-2-yl)thiophene-3-carbonitrile]: the figures for the IC50 in the experiment on U251-MG cells and on DHX33 protein were 1000 to 5000 nM and 100 to 400 nM, respectively.

As to `COc1cc2nc(/C(C#N)=C/c3cc(C)n(-c4sc(C)nc4C(N)=O)c3C)[nH]c2cn1` [AB24351, (E)-5-(3-(2-cyano-2-(6-methoxy-3H-imidazo[4,5-c]pyridin-2-yl)vinyl)-2,5-dimethyl-1H-pyrrol-1-yl)-2-methylthiazole-4-carboxamide], the IC50 lay within 100 to 1000 nM in the experiment with U251-MG cells and 20 to 100 nM on DHX33 protein.

`COc1ccn2c(c1)nc1cc(-c3cc(C)n(-c4sc(C)cc4C#N)c3C)ccc12` [AB24379, 2-(3-(3-methoxybenzo[4,5]imidazo[1,2-a]pyridin-7-yl)-2,5-dimethyl-1H-pyrrol-1-yl)-5-methylthiophene-3-carbonitrile]: the IC50 in the experiment with U251-MG cells was 1000 to 5000 nM; on DHX33 protein, 20 to 100 nM.

As to `COc1ccc2nc(NC(=O)c3cc(C)n(-c4sc(C)cc4C#N)c3C)[nH]c2c1` [AB24386, 1-(3-cyano-5-methylthiophen-2-yl)-N-(6-methoxy-1H-benzo[d]imidazol-2-yl)-2,5-dimethyl-1H-pyrrole-3-carboxamide], the figures for the IC50 with U251-MG cells and at DHX33 protein were below 100 nM and below 20 nM, respectively.

Take `COc1ccc2nc(NC(=O)c3cc(C)n(-c4sc(C)cc4C(N)=O)c3C)[nH]c2c1` [AB24387, 1-(3-carbamoyl-5-methylthiophen-2-yl)-N-(6-methoxy-1H-benzo[d]imidazol-2-yl)-2,5-dimethyl-1H-pyrrole-3-carboxamide]: the IC50 in the experiment on U251-MG cells was in the range of 100 to 1000 nM; on DHX33 protein, 20 to 100 nM.

Turning to `COc1cc2nc(/C(C#N)=C/c3cc(C)n(Cc4cccs4)c3C)[nH]c2cn1` [AB24399, (E)-3-(2,5-dimethyl-1-(thiophen-2-ylmethyl)-1H-pyrrol-3-yl)-2-(6-methoxy-3H-imidazo[4,5-c]pyridin-2-yl)acrylonitrile], the IC50 with U251-MG cells is below 100 nM; on DHX33 protein, below 20 nM.

With `COc1ccc2cc(NC(=O)c3cc(C)n(-c4sc(C)nc4C#N)c3C)[nH]c2c1` [AB29501], the IC50 in the experiment with U251-MG cells is below 100 nM; on DHX33 protein, below 20 nM.

In the case of `COc1cc2nc(/C(C#N)=C/c3cc(C)n([C@@H](C)c4ccccc4)c3C)[nH]c2cn1` [AB29506, (S,E)-3-(2,5-dimethyl-1-(1-phenylethyl)-1H-pyrrol-3-yl)-2-(6-methoxy-3H-imidazo[4,5-c]pyridin-2-yl)acrylonitrile], the IC50 in the experiment with U251-MG cells is below 100 nM; at DHX33 protein it was below 20 nM.

`COc1cc2nc(/C(C#N)=C/c3cnc(-c4ccccc4)n3C)[nH]c2cn1` [AB29511, (E)-2-(6-methoxy-3H-imidazo[4,5-c]pyridin-2-yl)-3-(1-methyl-2-phenyl-1H-imidazol-5-yl)acrylonitrile]: the values for the IC50 in the experiment on U251-MG cells and at DHX33 protein were 5000 to 20000 nM and 400 to 1000 nM, respectively.

As for `Cc1oc(-n2c(C)cc(/C=C(\C#N)c3nc4ccccc4[nH]3)c2C)c(C#N)c1C` [Compound as control, reference compound], the IC50 was 5000 to 20000 nM in the experiment with U251-MG cells and 400 to 1000 nM at DHX33 protein.

The record behind these values is patent US20230146233A1, “A CLASS OF POLYCYCLIC COMPOUNDS INHIBITING RNA HELICASE DHX33 AND THE APPLICATION THEREOF” (Shenzhen KeYe Life Technologies, Co., Ltd, priority 2020, published 2023).
